{"source": "patent US20130224730A1", "about": "“PEPTIDE LIGANDS” (ARIZONA BOARD OF REGENTS ACTING FOR AND ON BEHALF OF …, priority 2009, published 2013)", "key": {"[1]": {"test_system": "G2.4 Minerva nVLP (norovirus-like particles, VP1 capsid protein)", "test": "Peptide affinity column capture and elution of nVLP from tobacco cell lysate", "settings": "nVLP1 immobilized on a bead", "text": "Coupling to Support: All 6 candidate peptides were synthesized by solid-phase peptide synthesis using standard FMOC chemistry and subsequently cleaved off the resin. The candidate peptides were attached to an iodoacetyl functionalized affinity matrix at a specifically determined level. The benefits of coupling our peptides to the affinity matrix as opposed to direct synthesis onto the bead are that it allows for greater control of the levels of peptide that are immobilized. The suitability of a ligand for affinity chromatography depends on its ability to bind the target molecule specifically and reversibly with an adequate affinity. […]\nTo test the recovery yield of the column, cell lysate containing ˜500 μg of VP1 (as measured by SDS-PAGE) was loaded on the column and ˜470 μg of VP1 was recovered for a 94% yield. The dynamic binding capacity of the chromatography media was determined and is defined as the amount of target protein that the media binds under actual flow conditions before significant breakthrough of unbound protein occurs. […]\nBriefly, a large volume of VP1 containing lysate was prepared and its absorbance at 280 nm measured. This solution was continually loaded onto the column and the flow through measured for absorbance. The point at which breakthrough occurred, defined as 10% absorbance of the lysate, was used to calculate the binding capacity. […]"}, "[2]": {"test_system": "G1.1 nVLP", "test": "Peptide affinity column binding and elution of G1.1 nVLP produced in insect cells", "design": "species or system norovirus", "settings": "eluted under same conditions as G2.4 nVLP", "text": "Noroviruses bind to histo-blood group antigens (HBGAs), which are carbohydrates that contain structurally related saccharide moieties, wherein type 1 and type 2 carbohydrate core structures constitute antigenically distinct variants. Several, but not all, noroviruses specifically bind to HBGAs, which are believed to function as receptors for docking and entry into the cell during infection. As previously mentioned, peptide nVLP1 was selected to specifically bind to G2.4 Minerva nVLPs. […] We therefore have identified at ligand that has cross reactivity to G1 and G2 capsid proteins in VLPs, with homology between genogroups I and II around 50%."}}}
{"sequence": "LLYNKTFPHGRWSPSYPGSC (Peptide Ligand) [nVLP1, 20 mer peptide ligand for norovirus-like particles, optimal ligand]", "values": [{"measurement": "capture of nVLP from cell lysate", "setting": "[1]", "result": "able to capture nVLP from cell lysate"}, {"measurement": "binding to G1.1 nVLP (cross reactivity G1/G2)", "setting": "[2]", "result": "shown to bind G1.1 nVLP"}]}
